Measurements published in ChEMBL document CHEMBL6092179, “Discovery of CLKs inhibitors for the treatment of non-small cell lung cancer” (Eur J Med Chem, 2024).
Calls of active or inactive are those of the source. The calls are words filed in the database; no cut-off is given here.

What was measured:
[1] = molecular target: Dual specificity protein kinase CLK4 (Homo sapiens, UniProt Q9HAZ1); test: Inhibition of CLK4 (unknown origin) by ADP-Glo assay
[2] = molecular target: T1, Dual specificity protein kinase CLK3 (Homo sapiens, UniProt P49761); test: Inhibition of CLK3 (unknown origin) by ADP-Glo assay
Target sequence in this assay (P49761 whole entry): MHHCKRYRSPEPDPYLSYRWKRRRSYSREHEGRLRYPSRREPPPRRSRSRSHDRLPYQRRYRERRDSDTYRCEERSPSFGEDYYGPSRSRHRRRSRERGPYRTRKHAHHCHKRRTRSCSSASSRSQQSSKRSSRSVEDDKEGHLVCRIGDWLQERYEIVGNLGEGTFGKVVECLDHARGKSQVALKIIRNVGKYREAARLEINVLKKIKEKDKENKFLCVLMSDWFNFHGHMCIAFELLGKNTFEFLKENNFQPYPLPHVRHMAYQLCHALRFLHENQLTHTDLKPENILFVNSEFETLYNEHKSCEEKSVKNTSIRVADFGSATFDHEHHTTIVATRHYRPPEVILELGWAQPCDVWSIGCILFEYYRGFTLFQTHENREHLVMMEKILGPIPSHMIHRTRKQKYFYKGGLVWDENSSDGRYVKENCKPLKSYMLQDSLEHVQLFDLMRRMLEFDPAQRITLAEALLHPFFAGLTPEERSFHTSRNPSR

[3] = molecular target: T2, Dual specificity protein kinase CLK1 (Homo sapiens, UniProt P49759); test: Inhibition of CLK1 (unknown origin) by ADP-Glo assay
Target sequence in this assay (P49759 whole entry): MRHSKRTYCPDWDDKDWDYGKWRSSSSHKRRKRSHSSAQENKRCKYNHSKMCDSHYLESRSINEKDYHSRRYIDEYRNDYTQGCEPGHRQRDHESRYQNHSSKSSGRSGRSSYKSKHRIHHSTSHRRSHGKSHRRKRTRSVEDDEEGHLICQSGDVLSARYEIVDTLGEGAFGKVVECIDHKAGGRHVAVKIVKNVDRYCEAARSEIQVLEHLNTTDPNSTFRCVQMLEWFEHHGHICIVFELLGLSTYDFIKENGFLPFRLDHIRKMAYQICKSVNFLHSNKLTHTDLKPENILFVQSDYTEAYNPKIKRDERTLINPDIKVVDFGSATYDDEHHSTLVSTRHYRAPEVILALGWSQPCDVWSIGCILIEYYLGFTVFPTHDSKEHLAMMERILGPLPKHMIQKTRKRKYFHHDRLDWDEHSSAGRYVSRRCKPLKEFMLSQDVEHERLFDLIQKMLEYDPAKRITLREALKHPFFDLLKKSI

[4] = molecular target: T2, Dual specificity protein kinase CLK1; test: Inhibition of CLK in human NCI-H1299 cells assessed as downregulation of SRSF4 phosphorylation at 0.1 to 1 uM incubated for 1 hr by Western blotting analysis; type: cell-based; conditions: dose 0.1-1 µM
Target sequence in this assay (P49759 whole entry, looked up): as the sequence (P49759 whole entry) above

[5] = molecular target: T2, Dual specificity protein kinase CLK1; test: Inhibition of CLK in human NCI-H1299 cells assessed as downregulation of SRSF6 phosphorylation at 0.1 to 1 uM incubated for 1 hr by Western blotting analysis; type: cell-based; conditions: dose 0.1-1 µM
Target sequence in this assay (P49759 whole entry, looked up): as the sequence (P49759 whole entry) above

[6] = molecular target: T2, Dual specificity protein kinase CLK1; test: Inhibition of CLK1 (unknown origin) at 100 nM by ADP-Glo assay relative to control
Target sequence in this assay (P49759 whole entry, looked up): as the sequence (P49759 whole entry) above

[7] = molecular target: T1, Dual specificity protein kinase CLK3; test: Inhibition of CLK3 (unknown origin) at 100 nM by ADP-Glo assay relative to control
Target sequence in this assay (P49761 whole entry, looked up): as the sequence (P49761 whole entry) above

[8] = molecular target: Homeodomain-interacting protein kinase 1 (Homo sapiens) (UniProt Q86Z02); test: Inhibition of HIPK1 (unknown origin) at 100 nM by ADP-Glo assay relative to control
Chain of Homeodomain-interacting protein kinase 1 (Homo sapiens) (Q86Z02 whole entry, looked up): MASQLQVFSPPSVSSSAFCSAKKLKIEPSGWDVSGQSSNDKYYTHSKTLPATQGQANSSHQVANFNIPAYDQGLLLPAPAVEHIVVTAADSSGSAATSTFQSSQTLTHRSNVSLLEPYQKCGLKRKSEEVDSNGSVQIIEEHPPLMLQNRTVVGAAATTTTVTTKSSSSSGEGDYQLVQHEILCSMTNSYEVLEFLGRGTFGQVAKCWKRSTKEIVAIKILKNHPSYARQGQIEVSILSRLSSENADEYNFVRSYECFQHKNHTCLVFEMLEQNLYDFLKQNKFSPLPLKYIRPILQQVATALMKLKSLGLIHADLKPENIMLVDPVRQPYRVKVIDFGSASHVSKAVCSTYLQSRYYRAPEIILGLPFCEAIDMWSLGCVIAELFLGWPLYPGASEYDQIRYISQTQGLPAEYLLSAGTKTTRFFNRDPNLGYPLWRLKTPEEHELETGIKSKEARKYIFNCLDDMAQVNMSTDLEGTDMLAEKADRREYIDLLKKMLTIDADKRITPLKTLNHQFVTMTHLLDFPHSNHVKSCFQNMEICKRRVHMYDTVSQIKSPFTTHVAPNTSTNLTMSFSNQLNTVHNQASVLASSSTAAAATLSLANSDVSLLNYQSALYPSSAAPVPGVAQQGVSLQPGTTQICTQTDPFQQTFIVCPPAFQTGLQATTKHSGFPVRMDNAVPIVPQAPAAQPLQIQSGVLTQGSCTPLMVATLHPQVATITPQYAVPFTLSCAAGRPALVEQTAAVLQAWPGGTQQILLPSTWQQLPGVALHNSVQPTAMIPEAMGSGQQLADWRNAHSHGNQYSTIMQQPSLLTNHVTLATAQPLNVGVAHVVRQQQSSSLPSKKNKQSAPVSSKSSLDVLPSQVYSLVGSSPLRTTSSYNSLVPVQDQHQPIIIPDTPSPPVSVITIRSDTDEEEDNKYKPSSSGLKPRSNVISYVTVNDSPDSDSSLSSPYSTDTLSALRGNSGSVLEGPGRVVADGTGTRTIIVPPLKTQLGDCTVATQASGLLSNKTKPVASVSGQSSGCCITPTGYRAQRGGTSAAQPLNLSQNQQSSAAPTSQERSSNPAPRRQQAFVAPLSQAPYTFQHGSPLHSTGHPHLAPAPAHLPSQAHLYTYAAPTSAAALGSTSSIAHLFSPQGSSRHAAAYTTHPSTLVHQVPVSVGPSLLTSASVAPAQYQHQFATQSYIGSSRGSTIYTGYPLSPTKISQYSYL

NCI-H1299 [9] = test: Inhibition of colony formation in human NCI-H1299 cells incubated for 7 days by crystal violet staining based analysis; type: functional, cell-based; conditions: time 7.0 day
NCI-H1299 [10] = test: Induction of apoptosis in human NCI-H1299 cells assessed as viable cells at 0.1 uM incubated for 24 hrs by annexin V-FITC/PI staining based flow cytometric analysis (reference value: 95 %); type: functional; conditions: read-out: Activity
NCI-H1299 [11] = test: Induction of apoptosis in human NCI-H1299 cells assessed as viable cells at 0.25 uM incubated for 24 hrs by annexin V-FITC/PI staining based flow cytometric analysis (reference value: 95 %); type: functional; conditions: read-out: Activity
NCI-H1299 [12] = test: Induction of apoptosis in human NCI-H1299 cells assessed as viable cells at 0.5 uM incubated for 24 hrs by annexin V-FITC/PI staining based flow cytometric analysis (reference value: 95 %); type: functional; conditions: read-out: Activity
NCI-H1299 [13] = test: Induction of apoptosis in human NCI-H1299 cells assessed as viable cells at 2.5 uM incubated for 24 hrs by annexin V-FITC/PI staining based flow cytometric analysis (reference value: 95 %); type: functional; conditions: read-out: Activity
NCI-H1299 [14] = test: Induction of apoptosis in human NCI-H1299 cells assessed as early apoptotic cells at 0.25 uM incubated for 24 hrs by annexin V-FITC/PI staining based flow cytometric analysis (reference value: 0.49 %); type: functional
NCI-H1299 [15] = test: Induction of apoptosis in human NCI-H1299 cells assessed as early apoptotic cells at 0.5 uM incubated for 24 hrs by annexin V-FITC/PI staining based flow cytometric analysis (reference value: 0.49 %); type: functional
NCI-H1299 [16] = test: Induction of apoptosis in human NCI-H1299 cells assessed as early apoptotic cells at 2.5 uM incubated for 24 hrs by annexin V-FITC/PI staining based flow cytometric analysis (reference value: 0.49 %); type: functional
NCI-H1299 [17] = test: Induction of apoptosis in human NCI-H1299 cells assessed as late apoptotic cells at 0.1 uM incubated for 24 hrs by annexin V-FITC/PI staining based flow cytometric analysis (reference value: 2.23 %); type: functional
NCI-H1299 [18] = test: Induction of apoptosis in human NCI-H1299 cells assessed as late apoptotic cells at 0.25 uM incubated for 24 hrs by annexin V-FITC/PI staining based flow cytometric analysis (reference value: 2.23 %); type: functional
NCI-H1299 [19] = test: Induction of apoptosis in human NCI-H1299 cells assessed as late apoptotic cells at 0.5 uM incubated for 24 hrs by annexin V-FITC/PI staining based flow cytometric analysis (reference value: 2.23 %); type: functional
NCI-H1299 [20] = test: Induction of apoptosis in human NCI-H1299 cells assessed as late apoptotic cells at 1 uM incubated for 24 hrs by annexin V-FITC/PI staining based flow cytometric analysis (reference value: 2.23 %); type: functional
NCI-H1299 [21] = test: Induction of apoptosis in human NCI-H1299 cells assessed as late apoptotic cells at 2.5 uM incubated for 24 hrs by annexin V-FITC/PI staining based flow cytometric analysis (reference value: 2.23 %); type: functional
NCI-H1299 [22] = test: Induction of apoptosis in human NCI-H1299 cells assessed as necrotic cells at 0.1 uM incubated for 24 hrs by annexin V-FITC/PI staining based flow cytometric analysis (reference value: 2.28 %); type: functional
NCI-H1299 [23] = test: Induction of apoptosis in human NCI-H1299 cells assessed as necrotic cells at 0.5 uM incubated for 24 hrs by annexin V-FITC/PI staining based flow cytometric analysis (reference value: 2.28 %); type: functional
NCI-H1299 [24] = test: Induction of apoptosis in human NCI-H1299 cells at 0.1 to 2.5 uM incubated for 24 hrs by annexin V-FITC/PI staining based flow cytometric analysis relative to control; type: functional; conditions: dose 0.1-2.5 µM
NCI-H1299 [25] = test: Induction of apoptosis in human NCI-H1299 cells assessed as downregulation of BCL-2 expression at 0.1 to 1 uM incubated for 48 hrs by Western blotting analysis; type: functional, cell-based; conditions: dose 0.1-1 µM
NCI-H1299 [26] = test: Induction of apoptosis in human NCI-H1299 cells assessed as downregulation of AKT expression incubated for 12 hrs by Western blotting analysis; type: functional, cell-based
NCI-H1299 [27] = test: Induction of apoptosis in human NCI-H1299 cells assessed as downregulation of mTOR expression incubated for 12 hrs by Western blotting analysis; type: functional, cell-based
NCI-H1299 [28] = test: Inhibition of AKT phosphorylation in human NCI-H1299 cells at 0.1 to 1 uM incubated for 12 hrs by Western blotting analysis; type: cell-based; conditions: dose 0.1-1 µM
[29] = molecular target: Serine/threonine-protein kinase mTOR (Homo sapiens) (UniProt P42345); test: Inhibition of mTOR phosphorylation in human NCI-H1299 cells at 0.1 to 1 uM incubated for 12 hrs by Western blotting analysis; type: cell-based; conditions: dose 0.1-1 µM
NCI-H1299 [30] = test: Induction of autophagy in human NCI-H1299 cells assessed as effect on LC3I protein expression at 0.1 to 1 uM incubated for 48 hrs by Western blotting analysis; type: functional, cell-based; conditions: dose 0.1-1 µM
[31] = test system: Osimertinib-resistant NCI-H1975 cell; test: cells; conditions: Homo sapiens, 48 h
Description: Antiproliferative activity against human Osimertinib-resistant NCI-H1975 cell assessed as inhibition of cell growth incubated for 48 hrs by MTT assay

NCI-H1975 = test: cells; conditions: Homo sapiens, NCI-H1975, 48 h
Description: Antiproliferative activity against human NCI-H1975 cells assessed as inhibition of cell growth incubated for 48 hrs by MTT assay

cells = conditions: Homo sapiens, Osimertinib-resistant HCC827AR cell, 48 h
Description: Antiproliferative activity against human Osimertinib-resistant HCC827AR cell assessed as inhibition of cell growth incubated for 48 hrs by MTT assay

HCC827 = test: cells; conditions: Homo sapiens, HCC827, 48 h
Description: Antiproliferative activity against human HCC827 cells assessed as inhibition of cell growth incubated for 48 hrs by MTT assay

NCI-H1299 [32] = test: cells; conditions: Homo sapiens, NCI-H1299, 48 h
Description: Antiproliferative activity against human NCI-H1299 cells assessed as inhibition of cell growth incubated for 48 hrs by MTT assay

[33] = test system: Osimertinib-resistant NCI-H1975 cell; test: cells; conditions: Homo sapiens, 96 h
Description: Antiproliferative activity against human Osimertinib-resistant NCI-H1975 cell cultured as 3D spheroids assessed as inhibition of cell growth incubated for 96 hrs by CellTiter-Glo luminescence assay

Chain of Dual specificity protein kinase CLK4 (Q9HAZ1 whole entry): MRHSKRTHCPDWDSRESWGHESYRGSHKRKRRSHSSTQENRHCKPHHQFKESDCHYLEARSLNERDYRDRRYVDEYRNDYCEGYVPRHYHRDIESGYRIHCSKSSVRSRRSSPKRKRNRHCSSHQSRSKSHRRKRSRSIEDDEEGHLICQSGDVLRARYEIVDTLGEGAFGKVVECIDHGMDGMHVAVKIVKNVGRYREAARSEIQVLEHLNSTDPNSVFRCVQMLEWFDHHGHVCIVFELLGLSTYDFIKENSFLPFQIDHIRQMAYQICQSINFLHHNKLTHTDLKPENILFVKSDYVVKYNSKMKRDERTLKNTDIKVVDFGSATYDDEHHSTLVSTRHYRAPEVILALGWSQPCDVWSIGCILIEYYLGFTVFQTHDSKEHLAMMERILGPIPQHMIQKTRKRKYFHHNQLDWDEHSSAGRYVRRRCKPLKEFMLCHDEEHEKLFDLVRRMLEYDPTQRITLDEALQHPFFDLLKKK

FC1(F)CCN(Cc2cncc(-c3ccc4[nH]nc(-c5nc(-c6ccco6)c(-c6ccco6)[nH]5)c4c3)c2)C1
IC50 [1]: 7.3 nM
IC50 [2]: 28.7 nM
IC50 [3]: 4.6 nM
inhibition [4]: Active; Showed Stronger Inhibition Compared To Indazole 1
inhibition [5]: Active; Showed Stronger Inhibition Compared To Indazole 1
inhibition [6]: 98.1%
inhibition [7]: 103%
inhibition [8]: 51.4%
inhibition (NCI-H1299 [9]): Dose-dependent-effect
viability at 0.1 µM (NCI-H1299 [10]): 96.2%
viability at 0.25 µM (NCI-H1299 [11]): 92.1%
viability at 0.5 µM (NCI-H1299 [12]): 85.7%
viability at 2.5 µM (NCI-H1299 [13]): 82%
Activity (NCI-H1299 [14]): 3.57%
Activity (NCI-H1299 [15]): 8.27%
Activity (NCI-H1299 [16]): 9.7%
Activity (NCI-H1299 [17]): 1.26%
Activity (NCI-H1299 [18]): 2.55%
Activity (NCI-H1299 [19]): 5.16%
Activity (NCI-H1299 [20]): 5.23%
Activity (NCI-H1299 [21]): 6.71%
Activity (NCI-H1299 [22]): 1.1%
Activity (NCI-H1299 [23]): 0.89%
Activity (NCI-H1299 [24]): 3.7%
Activity (NCI-H1299 [25]): Active
Activity (NCI-H1299 [26]): Dose-dependent-effect
Activity (NCI-H1299 [27]): Dose-dependent-effect
inhibition (NCI-H1299 [28]): Active
inhibition [29]: Active
Activity (NCI-H1299 [30]): Active
IC50 [31]: 210 nM
IC50 (NCI-H1975): 150 nM
IC50 (cells): 220 nM
IC50 (HCC827): 160 nM
IC50 (NCI-H1299 [32]): 130 nM
IC50 [33]: 238 nM
